According to US10738275B2, “Paenibacillus sp. strain, cultivation method and use of the same” (BRIGHT DAIRY & FOOD CO., LTD, priority 2016, dated 2020):

Legend:
[1] = system: All bifidobacteria; test: in-vitro culture of infant fecal flora, PCR-intestinal microarray detection; format: cell-based, bifidobacteria in infants' fecal flora; details: 0.4% (w/v) added, 8 hours, 37° C.; for The increased log (ORF/mL) value of the flora in samples with respect to the blank control, All bifidobacteria: infant fecal flora in SIEM, anaerobic, blank control defined as 0
Protocol: (§1) The standard culture solution of fecal flora is prepared in accordance with the method of Minekus et al (Models of the gastrointestinal tract to study microbial interactions Original Research Article Biology of Growing Animals, 2005, 2:142-154).
(§2) (2) Certain amount of standard ileum efflux culture medium (SIEM, with 0.047 g/L pectin, 0.047 g/L xyloglucan, 0.047 g/L arabinogalactan, 0.047 g/L amylose, 0.392 g/L starch, 24.0 g/L casein, 17.0 g/L Tween 80, 24.0 g/L bacto peptone, 0.4 g/L oxgall, and 0.2 g/L cysteine) is added into a 96-well microtitration plate. Then, the 0.1% of the standard culture solution of fecal flora is added. The percentage refers to the volume percentage of the standard ileum efflux culture medium. Then, 0.4% of the purified extracellular polysaccharide (“BD3526 extracellular polysaccharide” for short) obtained in Example 11 and 0.4% of the commercialized fructooligosaccharide (FOS for short) are added into different wells among the 96 wells respectively. The final volume of liquid in each well is 1.5 mL. Meanwhile, the blank control is arranged. They are anaerobically cultured for 8 hours under 37° C. The percentage refers to the mass-volume percentage of the final volume of the liquid in a well of the 96-well microtitration plate.
(§3) (3) Once the cultivation is completed, the fermentation broth is mixed with 250 μL of lysis buffer, […], of zirconium bead liquid (0.1 mm) and 200 μL of phenol solution. Then they are homogenized on the bead beater (BIO SPEC Inc. U.S.) for twice (2 minutes for each time). The DNA is extracted with DNA Kit (TIANGEN BIOTECH CO., LTD). Then, PCR-intestinal microarray detection method (SALAZAR N, GUEIMONDE M, HERNANDEZ-BARRANCO A M, et al. Exopolysaccharides produced by intestinal Bifidobacterium strains act as fermentable substrates for human intestinal bacteria. Applied and environmental microbiology, 2008, 74(15): 4737-45.) is used to analyze the number of floras in samples with respect to that of the blank control (standard solution of fecal flora cultured without adding polysaccharide).

[2] = system: All bacteria; test: as above; format: cell-based, infants' fecal flora; details: 0.4% (w/v) added, infant fecal flora in SIEM, anaerobic, 8 hours, 37° C.; blank control defined as 0
Protocol: as §1
(2) Certain amount of standard ileum efflux culture medium (SIEM, with 0.047 g/L pectin, 0.047 g/L xyloglucan, 0.047 g/L arabinogalactan, 0.047 g/L amylose, 0.392 g/L starch, 24.0 g/L casein, 17.0 g/L Tween 80, 24.0 g/L bacto peptone, 0.4 g/L oxgall, and 0.2 g/L cysteine) is added into a 96-well microtitration plate. Then, the 0.1% of the standard culture solution of fecal flora is added. The percentage refers to the volume percentage of the standard ileum efflux culture medium. Then, 0.4% of the purified extracellular polysaccharide (“BD3526 extracellular polysaccharide” for short) obtained in Example 11 and 0.4% of the commercialized fructooligosaccharide (FOS for short) are added into different wells among the 96 wells respectively. The final volume of liquid in each well is 1.5 mL. Meanwhile, the blank control is arranged. They are anaerobically cultured for 8 hours under 37° C. The percentage refers to the mass-volume percentage of the final volume of the liquid in a well of the 96-well microtitration plate. […]

[3] = system: B. Longum; test: as above; format: cell-based; details: 0.4% (w/v) added, infant fecal flora in SIEM, anaerobic, 8 hours, 37° C.; blank control defined as 0
Protocol: as §1, §2, §3

[4] = system: B. infantis; test: as above; format: cell-based; details: 0.4% (w/v) added, infant fecal flora in SIEM, anaerobic, 8 hours, 37° C.; blank control defined as 0
Protocol: as §1, §2, §3

[5] = system: B. breve; test: as above; format: cell-based; details: 0.4% (w/v) added, infant fecal flora in SIEM, anaerobic, 8 hours, 37° C.; blank control defined as 0
Protocol: as §1, §2, §3

[6] = system: human intestinal flora; test: in-vitro culture of adult fecal flora, PCR-DGGE of V3 area for total bacteria; format: cell-based; details: 0.4% added, faeces of healthy adults, anaerobic, 24 hours, 37° C.
Protocol: (1) The faeces of 30 healthy adults (male or female, with the age range from 23 to 25, excluding those who have intestinal diseases or taking antibiotic drugs recently). They are dissolved in pH7.3-phosphate buffer (8 g/L-NaCl, 0.2 g/L-KCl, 1.15 g/L-NaHPO4, and 0.2 g/L-KH2PO4) and mixed uniformly. It is added into the culture system at a volume ratio of 1:10. Then, 0.4% of the purified extracellular polysaccharide (BD3526EPS for short) obtained in Embodiment 11 and 0.4% of the commercialized fructooligosaccharide (FOS for short) are added into the culture system respectively. Meanwhile, the blank control is arranged. They are anaerobically cultured for 24 hours under 37° C. The percentages refer to the mass-volume percentages of the culture system.
(2) Once the culture is completed, the phenol-chloroform method (ERCOLINI D, HILL P J, DODD C E. Bacterial community structure and location in Stilton cheese. Applied and environmental microbiology, 2003, 69(6): 3540-8.) is used to extract the DNA of the cultures and fecal flora. […]

Substance	The increased log (ORF/mL) value of the flora in samples with respect to the blank control, All bifidobacteria [1]	The increased log (ORF/mL) value of the flora in samples with respect to the blank control, All bacteria [2]	The increased log (ORF/mL) value of the flora in samples with respect to the blank control, B. Longum [3]	The increased log (ORF/mL) value of the flora in samples with respect to the blank control, B. infantis [4]	The increased log (ORF/mL) value of the flora in samples with respect to the blank control, B. breve [5]	brightness of PCR-DGGE stripes (FIG. 12), proliferation of bacteria in human intestinal flora, in words [6]	proliferation of the bifidobacteria in infants' fecal flora compared with the blank control group (FIG. 11), in words [1]
fructooligosaccharide [FOS, reference compound]	1.07 log (ORF/mL)	0.12 log (ORF/mL)	0.37 log (ORF/mL)	−0.121 log (ORF/mL)	1.18 log (ORF/mL)	–	–
levan [BD3526 extracellular polysaccharide]	0.74 log (ORF/mL)	0.448 log (ORF/mL)	0.36 log (ORF/mL)	0.017 log (ORF/mL)	0.81 log (ORF/mL)	significantly brighter than those of the FOS group and the blank control group	can also promote the proliferation of the bifidobacteria in infants' fecal flora
